Results on 18 compounds are retold here after US12473304B2, “Heterocyclic PAD4 inhibitors” (BRISTOL-MYERS SQUIBB COMPANY, priority 2020, dated 2025).

In the test the target is recombinant human PAD4 (Homo sapiens (Human), UniProt Q9UM07). As to the kind of experiment: RFMS Human PAD4 Functional Assay 2. It counts as biochemical. Conditions: RFMS assay 2; 35 nM recombinant human PAD4, 500 μM TSTGGRQGSHH peptide, 2 mM CaCl2, room temperature 30 minutes; read-out: hPAD4 RFMS IC50. The protocol:
RFMS Human PAD4 Functional Assay 2: Compound Preparation: • Stock compounds were dissolved and stored in 100% DMSO. Compound solutions were prepared via serial dilution at 3-fold intervals in DMSO with top compound concentration at 20 μM in each assay. 0.25 μl of compound solution was transferred from the compound plate to the assay plate by using an acoustic dispenser. Final Assay Conditions: • Total reaction volume: 25 μl • Assay buffer: […] pH 7.4, 200 mM NaCl, 2 mM CaCl2, 5 mM DTT • 35 nM recombinant human PAD4 • 500 μM TSTGGRQGSHH peptide • […] DMSO • Stop solution: 10% formic acid
Reaction mixtures were incubated at room temperature for 30 minutes. 10 μl each of the reaction mixtures was then mixed with 40 μl of 10% formic acid in a microtiter plate. The plate was frozen at −80° C. before shipping out on dry ice for RapidFire mass spectroscopy analysis.
Thawed samples were loaded onto the Rapid Fire 300 system (Agilent) wherein they were first sipped for 250 ms and then loaded onto an Agilent “C” (C18) cartridge using a mobile phase of water containing 0.09% formic acid/0.01% trifluoroacetic acid for 3000 ms desalting flowing at a rate of 1.5 ml/min. Once the samples were loaded and washed, a mobile phase of acetonitrile containing 0.09% formic acid/0.01% trifluoroacetic acid was used to elute the samples directly onto a Sciex API4000 triple quadrupole mass spectrometer for 3000 ms at a flow rate of 1.25 ml/min.
MRM transitions for substrate and product were monitored in positive ESI mode at m/z=562.3/969.7 and m/z=562.8/541.3 respectively. The dwell time for each transition was set at 100 ms, and the ESI voltage was used at 5500 with a source temperature of 650° C. Extracted ion peaks for each transition were integrated using the Rapid Fire Integrator software.

Molecules are shown by their SMILES.

The IC50 is the concentration at which inhibition is half-maximal.

recombinant human PAD4, sequence (Q9UM07 whole entry): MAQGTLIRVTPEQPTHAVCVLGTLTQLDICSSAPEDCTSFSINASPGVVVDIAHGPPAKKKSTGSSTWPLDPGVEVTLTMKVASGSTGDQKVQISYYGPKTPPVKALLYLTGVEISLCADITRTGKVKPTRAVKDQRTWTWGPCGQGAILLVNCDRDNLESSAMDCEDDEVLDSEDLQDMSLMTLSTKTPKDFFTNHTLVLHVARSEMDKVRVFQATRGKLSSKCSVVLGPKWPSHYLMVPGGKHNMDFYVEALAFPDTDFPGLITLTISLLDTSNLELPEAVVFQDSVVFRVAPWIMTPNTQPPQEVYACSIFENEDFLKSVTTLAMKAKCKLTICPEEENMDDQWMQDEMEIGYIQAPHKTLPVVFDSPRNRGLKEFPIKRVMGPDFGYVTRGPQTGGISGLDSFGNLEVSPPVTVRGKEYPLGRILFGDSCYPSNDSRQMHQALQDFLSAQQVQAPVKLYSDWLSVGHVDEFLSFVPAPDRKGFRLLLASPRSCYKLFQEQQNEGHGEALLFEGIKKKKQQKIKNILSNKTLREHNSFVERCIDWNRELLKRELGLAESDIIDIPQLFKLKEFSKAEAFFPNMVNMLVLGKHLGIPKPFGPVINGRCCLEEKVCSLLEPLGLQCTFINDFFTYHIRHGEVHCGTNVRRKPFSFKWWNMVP

`COc1cc(C(=O)N2C[C@H](N)C[C@@H](F)C2)cc2oc(-c3cc4cccc(OCC5CNC5)c4n3CC3CC3)c(CCO)c12` [Example 636, ((3R,5R)-3-amino-5-fluoropiperidin-1-yl)(2-(7-(azetidin-3-ylmethoxy)-1-(cyclopropylmethyl)-1H-indol-2-yl)-3-(2-hydroxyethyl)-4-methoxybenzofuran-6-yl)methanone]: the IC50 came to 0.277 µM. The value for `COc1cc(C(=O)N2C[C@H](N)C[C@@H](F)C2)cc2oc(-c3cc4cccc(OCC5CNC(=O)C5)c4n3CC3CC3)c(CCO)c12` (stereo partly drawn) [Example 633, 4-(((2-(6-((3R,5R)-3-amino-5-fluoropiperidine-1-carbonyl)-3-(2-hydroxyethyl)-4-methoxybenzofuran-2-yl)-1-(cyclopropylmethyl)-1H-indol-7-yl)oxy)methyl)pyrrolidin-2-one] was 0.179 µM. The value for `COc1ccc2cc(-c3sc4cc(C(=O)N5C[C@H](N)C[C@@H](F)C5)cc(OC)c4c3CCO)n(CC3CC3)c2c1` [Example 624, ((3R,5R)-3-amino-5-fluoropiperidin-1-yl)(2-(1-(cyclopropylmethyl)-6-methoxy-1H-indol-2-yl)-3-(2-hydroxyethyl)-4-methoxybenzo[b]thiophen-6-yl)methanone] was 0.383 µM; that for `Cc1c(-c2cc3ccccc3n2CC2CC2)sc2cc(C(=O)N3CCC[C@@H](N)C3)cc(CO)c12` [Example 627, (R)-(3-Aminopiperidin-1-yl)(2-(1-(cyclopropylmethyl)-1H-indol-2-yl)-4-(hydroxymethyl)-3-methylbenzo[b]thiophen-6-yl)methanone] was 0.879 µM.

Turning to `COc1cc(C(=O)N2CCC[C@@H](N)C2)cc2sc(-c3cc4ccccc4n3CC3CC3)c(CCN)c12` [Example 625, (R)-(3-(2-aminoethyl)-2-(1-(cyclopropylmethyl)-1H-indol-2-yl)-4-methoxybenzo[b]thiophen-6-yl)(3-aminopiperidin-1-yl)methanone], the IC50 is 2.04 µM. Next, `COc1cc(C(=O)N2C[C@H](N)C[C@@H](F)C2)cc2sc(-c3cc4ccccc4n3CC3CC3)c(CCO)c12` [Example 623, ((3R,5R)-3-amino-5-fluoropiperidin-1-yl)(2-(1-(cyclopropylmethyl)-1H-indol-2-yl)-3-(2-hydroxyethyl)-4-methoxybenzo[b]thiophen-6-yl)methanone]: 0.395 µM; `COc1ccc2cc(-c3oc4cc(C(=O)N5C[C@H](N)C[C@@H](F)C5)cc(OC)c4c3CCO)n(CC3CC3)c2c1` [Example 628, ((3R,5R)-3-Amino-5-fluoropiperidin-1-yl)(2-(1-(cyclopropylmethyl)-6-methoxy-1H-indol-2-yl)-3-(2-hydroxyethyl)-4-methoxybenzofuran-6-yl)methanone]: 0.322 µM.

With `COc1cc(C(=O)N2C[C@H](N)C[C@@H](F)C2)cc2oc(-c3cc4cccnc4n3CC3CC3)c(CCO)c12` [Example 629, ((3R,5R)-3-amino-5-fluoropiperidin-1-yl)(2-(1-(cyclopropylmethyl)-1H-pyrrolo[2,3-b]pyridin-2-yl)-3-(2-hydroxyethyl)-4-methoxybenzofuran-6-yl)methanone], the IC50 amounted to 0.785 µM. Next, `COc1cc(C(=O)N2C[C@H](N)C[C@@H](F)C2)cc2oc(-c3cc4cccc(OCCn5cncn5)c4n3CC3CC3)c(CCO)c12` [Example 635, (2-(7-(2-(1H-1,2,4-triazol-1-yl)ethoxy)-1-(cyclopropylmethyl)-1H-indol-2-yl)-3-(2-hydroxyethyl)-4-methoxybenzofuran-6-yl)((3R,5R)-3-amino-5-fluoropiperidin-1-yl)methanone]: 0.216 µM; `COc1cc(C(=O)N2C[C@H](N)C[C@@H](F)C2)cc2oc(-c3cc4cccc(OC)c4n3CC3CC3)c(CCO)c12` [Example 632, ((3R,5R)-3-amino-5-fluoropiperidin-1-yl)(2-(1-(cyclopropylmethyl)-7-methoxy-1H-indol-2-yl)-3-(2-hydroxyethyl)-4-methoxybenzofuran-6-yl)methanone]: 0.327 µM.

For `COc1cc(C(=O)N2C[C@H](N)C[C@@H](F)C2)cc2oc(-c3cc4cccc(OCC5CN(C)C5)c4n3CC3CC3)c(CCO)c12` [Example 637, ((3R,5R)-3-amino-5-fluoropiperidin-1-yl)(2-(1-(cyclopropylmethyl)-7-((1-methylazetidin-3-yl)methoxy)-1H-indol-2-yl)-3-(2-hydroxyethyl)-4-methoxybenzofuran-6-yl)methanone], the IC50 came out at 0.621 µM.

In the case of `Cc1c(-c2cc3ccccc3n2CC2CC2)sc2cc(C(=O)N3CCC[C@@H](N)C3)cc(CCO)c12` [Example 626, (R)-(3-aminopiperidin-1-yl)(2-(1-(cyclopropylmethyl)-1H-indol-2-yl)-4-(2-hydroxyethyl)-3-methylbenzo[b]thiophen-6-yl)methanone], the IC50 amounted to 0.849 µM. The value for `COc1cc(C(=O)N2C[C@H](N)C[C@@H](F)C2)cc2oc(-c3cc4ccccc4n3CC3CC3)c(CCO)c12` [Example 630, ((3R,5R)-3-amino-5-fluoropiperidin-1-yl)(2-(1-(cyclopropylmethyl)-1H-indol-2-yl)-3-(2-hydroxyethyl)-4-methoxybenzofuran-6-yl)methanone] was 0.288 µM; that for `CN[C@@H]1C[C@@H](F)CN(C(=O)c2cc(OC)c3c(CCO)c(-c4cc5ccccc5n4CC4CC4)oc3c2)C1` [Example 631, (2-(1-(cyclopropylmethyl)-1H-indol-2-yl)-3-(2-hydroxyethyl)-4-methoxybenzofuran-6-yl)((3R,5R)-3-fluoro-5-(methylamino)piperidin-1-yl)methanone] was 7.58 µM. Next, `COc1cc(C(=O)N2C[C@H](N)C[C@@H](F)C2)cc2oc(-c3cc4cccc(OCC5COC5)c4n3CC3CC3)c(CCO)c12` [Example 638, ((3R,5R)-3-amino-5-fluoropiperidin-1-yl)(2-(1-(cyclopropylmethyl)-7-(oxetan-3-ylmethoxy)-1H-indol-2-yl)-3-(2-hydroxyethyl)-4-methoxybenzofuran-6-yl)methanone]: 0.295 µM; `COc1cc(C(=O)N2CCC[C@@H](N)C2)cc2sc(-c3cc4ccccc4n3CC3CC3)c(CCO)c12` [Example 622, (R)-(3-aminopiperidin-1-yl)(2-(1-(cyclopropylmethyl)-1H-indol-2-yl)-3-(2-hydroxyethyl)-4-methoxybenzo[b]thiophen-6-yl)methanone]: 1.2 µM.

Regarding `COc1cc(C(=O)N2C[C@H](N)C[C@@H](F)C2)cc2oc(-c3cc4cccc(OCc5ncno5)c4n3CC3CC3)c(CCO)c12` [Example 639, (2-(7-((1,2,4-oxadiazol-5-yl)methoxy)-1-(cyclopropylmethyl)-1H-indol-2-yl)-3-(2-hydroxyethyl)-4-methoxybenzofuran-6-yl)((3R,5R)-3-amino-5-fluoropiperidin-1-yl)methanone], the IC50 came to 0.243 µM.

Consider `COc1cc(C(=O)N2C[C@H](N)C[C@@H](F)C2)cc2oc(-c3cc4cccc(OCCO)c4n3CC3CC3)c(CCO)c12` [Example 634, ((3R,5R)-3-amino-5-fluoropiperidin-1-yl)(2-(1-(cyclopropylmethyl)-7-(2-hydroxyethoxy)-1H-indol-2-yl)-3-(2-hydroxyethyl)-4-methoxybenzofuran-6-yl)methanone], for which the IC50 is 0.209 µM.
